Test system: plants
Test: Test D pre-emergence, other plants of Tables D1 and D3
Assay type: in vivo
Conditions: preemergent, 20 DAA
How it was run: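 Seeds treated with herbicide safener; sown in soil; glasshouse, 16 h light, 65% humidity. Sprayed day 1 (pre) or ~day 12 (post). Spray in 0.2% v/v adjuvant. Scored 0–100 damage: 20 DAA pre, 15 d post.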

In the case of `CN1CC(c2cc(C(F)(F)F)n(C)n2)C(C(=O)Nc2cccc(F)c2F)C1=O` (racemic) [Compound 3], the “damage to plant (100=total damage to plant; 0=no damage to plant), ABUTH” value (rate 15) is reported as 0, the “damage to plant (100=total damage to plant; 0=no damage to plant), ABUTH” value (rate 30) is reported as 0 and the “damage to plant (100=total damage to plant; 0=no damage to plant), ABUTH” value (rate 60) is reported as 0. For the same compound, the “damage to plant (100=total damage to plant; 0=no damage to plant), ABUTH” value (rate 130) was 0, the “damage to plant (100=total damage to plant; 0=no damage to plant), ABUTH” value (rate 250) was 0 and the “damage to plant (100=total damage to plant; 0=no damage to plant), ABUTH” value (rate 500) was 0. The “damage to plant (100=total damage to plant; 0=no damage to plant), BIDPI” value (rate 15) was 0, the “damage to plant (100=total damage to plant; 0=no damage to plant), BIDPI” value (rate 30) was 0 and the “damage to plant (100=total damage to plant; 0=no damage to plant), BIDPI” value (rate 60) was 0. The “damage to plant (100=total damage to plant; 0=no damage to plant), BIDPI” value (rate 130) was 0, the “damage to plant (100=total damage to plant; 0=no damage to plant), BIDPI” value (rate 250) was 0 and the “damage to plant (100=total damage to plant; 0=no damage to plant), BIDPI” value (rate 500) was 0. The “damage to plant (100=total damage to plant; 0=no damage to plant), BRAPL” value (rate 15) was 20, the “damage to plant (100=total damage to plant; 0=no damage to plant), BRAPL” value (rate 30) was 50 and the “damage to plant (100=total damage to plant; 0=no damage to plant), BRAPL” value (rate 60) was 90. For the same compound, the “damage to plant (100=total damage to plant; 0=no damage to plant), BRAPL” value (rate 130) was 100, the “damage to plant (100=total damage to plant; 0=no damage to plant), BRAPL” value (rate 250) was 100 and the “damage to plant (100=total damage to plant; 0=no damage to plant), BRAPL” value (rate 500) was 100. The “damage to plant (100=total damage to plant; 0=no damage to plant), CYPES” value (rate 15) was 0, the “damage to plant (100=total damage to plant; 0=no damage to plant), CYPES” value (rate 30) was 0 and the “damage to plant (100=total damage to plant; 0=no damage to plant), CYPES” value (rate 60) was 0. For the same compound, the “damage to plant (100=total damage to plant; 0=no damage to plant), CYPES” value (rate 130) was 0, the “damage to plant (100=total damage to plant; 0=no damage to plant), CYPES” value (rate 250) was 0 and the “damage to plant (100=total damage to plant; 0=no damage to plant), CYPES” value (rate 500) was 10. For the same compound, the “damage to plant (100=total damage to plant; 0=no damage to plant), DIGSA” value (rate 15) was 20, the “damage to plant (100=total damage to plant; 0=no damage to plant), DIGSA” value (rate 30) was 90 and the “damage to plant (100=total damage to plant; 0=no damage to plant), DIGSA” value (rate 60) was 90. For the same compound, the “damage to plant (100=total damage to plant; 0=no damage to plant), DIGSA” value (rate 130) was 100, the “damage to plant (100=total damage to plant; 0=no damage to plant), DIGSA” value (rate 250) was 100 and the “damage to plant (100=total damage to plant; 0=no damage to plant), DIGSA” value (rate 500) was 100. The “damage to plant (100=total damage to plant; 0=no damage to plant), ECHCG” value (rate 15) was 20, the “damage to plant (100=total damage to plant; 0=no damage to plant), ECHCG” value (rate 30) was 90 and the “damage to plant (100=total damage to plant; 0=no damage to plant), ECHCG” value (rate 60) was 90. The “damage to plant (100=total damage to plant; 0=no damage to plant), ECHCG” value (rate 130) was 90, the “damage to plant (100=total damage to plant; 0=no damage to plant), ECHCG” value (rate 250) was 100 and the “damage to plant (100=total damage to plant; 0=no damage to plant), ECHCG” value (rate 500) was 100. The “damage to plant (100=total damage to plant; 0=no damage to plant), ELEIN” value (rate 15) was 0, the “damage to plant (100=total damage to plant; 0=no damage to plant), ELEIN” value (rate 30) was 0 and the “damage to plant (100=total damage to plant; 0=no damage to plant), ELEIN” value (rate 60) was 0. For the same compound, the “damage to plant (100=total damage to plant; 0=no damage to plant), ELEIN” value (rate 130) was 0, the “damage to plant (100=total damage to plant; 0=no damage to plant), ELEIN” value (rate 250) was 0 and the “damage to plant (100=total damage to plant; 0=no damage to plant), ELEIN” value (rate 500) was 0. The “damage to plant (100=total damage to plant; 0=no damage to plant), EPHHL” value (rate 15) was 0, the “damage to plant (100=total damage to plant; 0=no damage to plant), EPHHL” value (rate 30) was 0 and the “damage to plant (100=total damage to plant; 0=no damage to plant), EPHHL” value (rate 60) was 0. For the same compound, the “damage to plant (100=total damage to plant; 0=no damage to plant), EPHHL” value (rate 130) was 0, the “damage to plant (100=total damage to plant; 0=no damage to plant), EPHHL” value (rate 250) was 10 and the “damage to plant (100=total damage to plant; 0=no damage to plant), EPHHL” value (rate 500) was 10. For the same compound, the “damage to plant (100=total damage to plant; 0=no damage to plant), GLXMA” value (rate 15) was 0, the “damage to plant (100=total damage to plant; 0=no damage to plant), GLXMA” value (rate 30) was 0 and the “damage to plant (100=total damage to plant; 0=no damage to plant), GLXMA” value (rate 60) was 0. The “damage to plant (100=total damage to plant; 0=no damage to plant), GLXMA” value (rate 130) was 0, the “damage to plant (100=total damage to plant; 0=no damage to plant), GLXMA” value (rate 250) was 0 and the “damage to plant (100=total damage to plant; 0=no damage to plant), GLXMA” value (rate 500) was 10. The “damage to plant (100=total damage to plant; 0=no damage to plant), IPOHE” value (rate 15) was 0, the “damage to plant (100=total damage to plant; 0=no damage to plant), IPOHE” value (rate 30) was 0 and the “damage to plant (100=total damage to plant; 0=no damage to plant), IPOHE” value (rate 60) was 0. The “damage to plant (100=total damage to plant; 0=no damage to plant), IPOHE” value (rate 130) was 0, the “damage to plant (100=total damage to plant; 0=no damage to plant), IPOHE” value (rate 250) was 0 and the “damage to plant (100=total damage to plant; 0=no damage to plant), IPOHE” value (rate 500) was 0. For the same compound, the “damage to plant (100=total damage to plant; 0=no damage to plant), ORYSA” value (rate 15) was 0, the “damage to plant (100=total damage to plant; 0=no damage to plant), ORYSA” value (rate 30) was 0 and the “damage to plant (100=total damage to plant; 0=no damage to plant), ORYSA” value (rate 60) was 0. The “damage to plant (100=total damage to plant; 0=no damage to plant), ORYSA” value (rate 130) was 0, the “damage to plant (100=total damage to plant; 0=no damage to plant), ORYSA” value (rate 250) was 0 and the “damage to plant (100=total damage to plant; 0=no damage to plant), ORYSA” value (rate 500) was 0. The “damage to plant (100=total damage to plant; 0=no damage to plant), PANMI” value (rate 15) was 0, the “damage to plant (100=total damage to plant; 0=no damage to plant), PANMI” value (rate 30) was 0 and the “damage to plant (100=total damage to plant; 0=no damage to plant), PANMI” value (rate 60) was 0. For the same compound, the “damage to plant (100=total damage to plant; 0=no damage to plant), PANMI” value (rate 130) was 0, the “damage to plant (100=total damage to plant; 0=no damage to plant), PANMI” value (rate 250) was 0 and the “damage to plant (100=total damage to plant; 0=no damage to plant), PANMI” value (rate 500) was 0. The “damage to plant (100=total damage to plant; 0=no damage to plant), SETFA” value (rate 15) was 0, the “damage to plant (100=total damage to plant; 0=no damage to plant), SETFA” value (rate 30) was 30 and the “damage to plant (100=total damage to plant; 0=no damage to plant), SETFA” value (rate 60) was 80. For the same compound, the “damage to plant (100=total damage to plant; 0=no damage to plant), SETFA” value (rate 130) was 90, the “damage to plant (100=total damage to plant; 0=no damage to plant), SETFA” value (rate 250) was 90 and the “damage to plant (100=total damage to plant; 0=no damage to plant), SETFA” value (rate 500) was 90. The “damage to plant (100=total damage to plant; 0=no damage to plant), SIDSP” value (rate 15) was 0, the “damage to plant (100=total damage to plant; 0=no damage to plant), SIDSP” value (rate 30) was 0 and the “damage to plant (100=total damage to plant; 0=no damage to plant), SIDSP” value (rate 130) was 0. For the same compound, the “damage to plant (100=total damage to plant; 0=no damage to plant), SIDSP” value (rate 250) was 60, the “damage to plant (100=total damage to plant; 0=no damage to plant), SIDSP” value (rate 500) was 60 and the “damage to plant (100=total damage to plant; 0=no damage to plant), SORVU” value (rate 15) was 0. For the same compound, the “damage to plant (100=total damage to plant; 0=no damage to plant), SORVU” value (rate 30) was 0, the “damage to plant (100=total damage to plant; 0=no damage to plant), SORVU” value (rate 60) was 0 and the “damage to plant (100=total damage to plant; 0=no damage to plant), SORVU” value (rate 130) was 0. The “damage to plant (100=total damage to plant; 0=no damage to plant), SORVU” value (rate 250) was 0 and the “damage to plant (100=total damage to plant; 0=no damage to plant), SORVU” value (rate 500) was 0.

— patent US20220281848A1, “PYRAZOLE-SUBSTITUTED PYRROLIDINONES AS HERBICIDES” (FMC Corporation, priority 2019, published 2022)
